Assay results as given in patent US9976141B2, “Compositions and methods for inhibiting gene expression of Hif2alpha” (Arrowhead Madison Inc., priority 2015, dated 2018).

The substances below were run on human (tumor) Hif2α (EPAS1) mRNA (assay: Hif2α knockdown in orthotopic RCC tumor bearing mice, single injection of RNAi trigger-delivery polymer conjugate, RT-qPCR (Table 7)). Conditions: RNAi trigger 50 μg, polymer 064 125 μg; single tail vein injection; relative to isotonic glucose.
Format: in vivo
How it was run: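 A single intravenous dose of Hif2α RNAi trigger–delivery polymer conjugate, or isotonic glucose vehicle, was given to nude mice with subcapsular A498-SEAP renal tumours (about 5–6 weeks old). At the indicated time, tumour RNA was assayed by biplex TaqMan qPCR against CycA, and relative expression was calculated by ΔΔCT versus vehicle.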

| Substance | Relative Expression day 4 (Hif2α mRNA in kidney tumor) |
| --- | --- |
| AD02874 (antisense UUUCAUGAAAUCGUUACGUUG; sense UAUACGUAACGAUUUCAUGAAAT; Hif2alpha RNAi agent antisense strand; modified_base 2,4,6,8,10,14,16,18 /mod_base = “2′-deoxy-2′-fluoro corresponding nucleoside”; modified_base 1,3,5,7,9,11,12,13,15,17,19,20,21 /mod_base = “2′-O-methyl corresponding nucleoside”; modified_base 2,3,20,21 /mod_base = “5′-phosphorothioate corresponding nucleotide”; Hif2alpha RNAi agent sense strand; modified_base 2 modified base = “2′-hydroxy corresponding nucleoside”; modified_base 10,11,12,16 /mod_base = “2′-deoxy-2′-fluoro corresponding nucleoside”; modified_base 1,3,4,5,6,7,8,9,13,14,15,17,18,19,20,21,22 /mod_base = “2′-O-methyl correspon) | 0.138 |
| AD02875 (antisense AUUCAUGAAAUCGUUACGUUG; sense UAUACGUAACGAUUUCAUGAAUT; Hif2alpha RNAi agent antisense strand; modified_base 2,4,6,8,10,14,16,18 /mod_base = “2′-deoxy-2′-fluoro corresponding nucleoside”; modified_base 1,3,5,7,9,11,12,13,15,17,19,20,21 /mod_base = “2′-O-methyl corresponding nucleoside”; modified_base 2,3,20,21 /mod_base = “5′-phosphorothioate corresponding nucleotide”; Hif2alpha RNAi agent sense strand; modified_base 2 modified base = “2′-hydroxy corresponding nucleoside”; modified_base 10,11,12,16 /mod_base = “2′-deoxy-2′-fluoro corresponding nucleoside”; modified_base 1,3,4,5,6,7,8,9,13,14,15,17,18,19,20,21,22 /mod_base = “2′-O-methyl correspon) | 0.101 |
| AD02949 (antisense UUUCAUGAAAUCGUUACGUUG; sense ACGUAACGAUUUCAUGAAAT; Hif2alpha RNAi agent antisense strand; modified_base 2,4,6,8,10,14,16,18 /mod_base = “2′-deoxy-2′-fluoro corresponding nucleoside”; modified_base 1,3,5,7,9,11,12,13,15,17,19,20,21 /mod_base = “2′-O-methyl corresponding nucleoside”; modified_base 2,3,20,21 /mod_base = “5′-phosphorothioate corresponding nucleotide”; Hif2alpha RNAi agent sense strand; modified_base 7,9,13 /mod_base = “2′-deoxy-2′-fluoro corresponding nucleoside”; modified_base 1,2,3,4,5,6,8,10,11,12,14,15,16,17,18,19 /mod_base = “2′-O-methyl corresponding nucleoside”; modified_base 20 /mod_base = “3′-3′-linked nucleotide”; modi) | 0.176 |
| AD03011 (antisense UUUCAUGAAAUCGUUACGUUG; sense UAUACGUAACGAUUUCAUGAAAT; Hif2alpha RNAi agent antisense strand; modified_base 2,4,6,8,10,14,16,18 /mod_base = “2′-deoxy-2′-fluoro corresponding nucleoside”; modified_base 1,3,5,7,9,11,12,13,15,17,19,20,21 /mod_base = “2′-O-methyl corresponding nucleoside”; modified_base 2,3,20,21 /mod_base = “5′-phosphorothioate corresponding nucleotide”; Hif2alpha RNAi agent sense strand; modified_base 2 modified base = “2′-hydroxy corresponding nucleoside”; modified_base 10,12,16 /mod_base = “2′-deoxy-2′-fluoro corresponding nucleoside”; modified_base 1,3,4,5,6,7,8,9,11,13,14,15,17,18,19,20,21,22 /mod_base = “2′-O-methyl correspon) | 0.183 |
| AD03187 (antisense UGUAAAACAAUUGUGUACUUU; sense AGUACACAAUUGUUUUACAT; Hif2alpha RNAi agent antisense strand; modified_base 2,4,6,8,10,14,16,18 /mod_base = “2′-deoxy-2′-fluoro corresponding nucleoside”; modified_base 1,3,5,7,9,11,12,13,15,17,19,20,21 /mod_base = “2′-O-methyl corresponding nucleoside”; modified_base 2,3,20,21 /mod_base = “5′-phosphorothioate corresponding nucleotide”; Hif2alpha RNAi agent sense strand; modified_base 3,5,7,8,9,11,13,17 /mod_base = “2′-deoxy-2′-fluoro corresponding nucleoside”; modified_base 1,2,4,6,10,12,14,15,16,18,19 /mod_base = “2′-O-methyl corresponding nucleoside”; modified_base 20 /mod_base = “3′-3′-linked nucleotide”; modi) | 1.000 |
| AD03188 (antisense AGUAAAACAAUUGUGUACUUU; sense AGUACACAAUUGUUUUACUT; Hif2alpha RNAi agent antisense strand; modified_base 2,4,6,8,10,14,16,18 /mod_base = “2′-deoxy-2′-fluoro corresponding nucleoside”; modified_base 1,3,5,7,9,11,12,13,15,17,19,20,21 /mod_base = “2′-O-methyl corresponding nucleoside”; modified_base 2,3,20,21 /mod_base = “5′-phosphorothioate corresponding nucleotide”; Hif2alpha RNAi agent sense strand; modified_base 3,5,7,8,9,11,13,17 /mod_base = “2′-deoxy-2′-fluoro corresponding nucleoside”; modified_base 1,2,4,6,10,12,14,15,16,18,19 /mod_base = “2′-O-methyl corresponding nucleoside”; modified_base 20 /mod_base = “3′-3′-linked nucleotide”; modi) | 0.308 |
